In patent EP2345639A1, “Cyclic hydroxylamine derivatives, their preparation and use as antioxidants” (ABIOGEN PHARMA S.p.A., priority 2009, dated 2011):
Like-named read-outs stand apart in the source and are kept apart here.

How the values were obtained:
[1] = tested on: doxorubicin-induced cerebral oxidative stress in mice; test: In vivo assay of cerebral oxidative stress induced in mice by doxorubicin (model and oxidized animals); details: for inhibition in vivo at 50 mg/kg / change in vivo at 50 mg/kg: Mus musculus; for inhibition in vivo at 50 mg/kg: read-out: inhibition of the doxorubicin effect; for change in vivo at 50 mg/kg / mean % effect relative to doxorubicin alone, all parameters (Vehicle): oxidized mice; for mean % effect relative to doxorubicin alone, all parameters (Vehicle): computed as a function of the vehicle
Procedure: The assay was carried out on compounds (1)-(5) and (7)-(11) and on edaravone (E) as comparative compound.
10 mice were used for each treatment group. For each compound 50 mg/kg were administered intraperitoneally (IP) for three consecutive days (day 0, 1 and 2); half the animals (5) also received IP 16.7 mg/kg of doxorubicin immediately after the first treatment (day 0). On the day after the last administration (day 3) the animals were killed by neck dislocation and the brains were removed, weighed and frozen in liquid nitrogen.
For the analyses of oxidative stress, 100 mg/ml of brain homogenate was prepared in HEB^(*) buffer (pH 7.4 EDTA/HEPES^(**)) containing a mixture of enzyme inhibitors (Leupeptin, Pepstatin, Aprotinin, BHA).
The evaluation parameters were: • BrW/BWi: ratio between final brain weight and initial body weight (day 0); • Prot. Hmg: total proteins in the homogenate (BCA method, i.e. bicinchoninic acid); • Prot. Ox: oxidized proteins in the Hmg by means of a colorimetric method using dinitrophenylhydrazone (DNPH); • GSH: reduced glutathione in the supernatant (sn) of the Hmg, obtained after precipitation with metaphosphoric acid (MPA), by means of a colorimetric method using dithiodinitrobenzene (DTNB); • CAT: catalase in the Hmg by a colorimetric method using potassium dichromate; • SOD: superoxide dismutase by a colorimetric method using SOD Reagent (xanthine, EDTA, nitroblue tetrazole, Na2CO3, BSA, i.e. bovine serum albumin); • GST: glutathione S-transferase in the supernatant by a colorimetric method using chlorodinitrobenzene (CDNB) and GSH; and • GPx: glutathione peroxidase in the supernatant after addition of GSH and t-BuOOH, heating and precipitation with MPA; followed by GSH method with DTNB. The assay was performed on the compounds (1)-(5) and (7)-(11) and on edaravone (E), as comparative compound.
The mean effect (n=5 experiments) of doxorubicin (D), i.e. "oxidized" animal, relative to the vehicle (V), the vehicle representing the healthy animal.
All the parameters, with the exclusion of Brain/BWi and Prot. Hmg, were normalized for total Hmg proteins. The D value standard deviations and the % incidence relative to V are given in italics.
The effect of the tested compounds on the "oxidized" animals was given as % inhibition relative to the percentage change due to doxorubicin alone. The effect of the compounds on the oxidized animals can be expressed both as a function of the values of the vehicle (healthy, vehicle only) and as a function of the value of its own (healthy, compound only): • Vehicle: percentage [(Compound+D)/V]x100/[(V+D)/V]x100 • Its own: percentage [(Compound+D)/Compound]x100/[(V+D)/V]x100
Again in this case, the mean % effect relative to doxorubicin alone could be given for all the parameters simultaneously, as an approximate index of effectiveness on the cerebral oxidative state of the animal.

[2] = Brain-to-plasma concentration ratio in mice; assay type: in vivo, Female CD-1 mice; details: female, CD-1, mouse, ip, 25 mg/kg intraperitoneal, area under the curve of brain and plasma concentrations 0 to 60 minutes, read-out: B/P ratio
Procedure: The ability of the compounds of the invention to penetrate the brain was investigated by measuring their brain/plasma (B/P) ratio in mice following intraperitoneal administration.
Female CD-1 mice were used (n=3 for each time period) and received the compounds of the invention by intraperitoneal administration, in 25 mg/kg doses in a 0.5% NaHCO3 buffer (pH 8.3). At predefined intervals following said administration, i.e. 5, 15, 30 and 60 minutes, the mice were killed and both plasma and total brain tissue were collected.
Specifically, after anaesthesia with ether, the animals were bled by blood withdrawal from the abdominal aorta then immediately decapitated. The blood samples were collected into plasma separator tubes containing Li-Heparin as anticoagulant and centrifuged. The resulting plasma was then stored at -20 °C. The brain was rapidly removed from the cranium and weighed, subsequently frozen and stored at -20 °C before treatment by homogenization and HPLC analysis.
The plasma was thawed and mixed with an equal volume of the extraction solution.
1 ml of solution was then extracted by adding 20 µl of 70% HClO4, then centrifuged at 15,500g for 5 minutes and injected into the HPLC.
Each brain was thawed and homogenized with the extraction solution to provide a final composition of 4 ml/1g of tissue by means of an Ultra-Turrax blender and sonicated for 5 minutes. After centrifugation of the homogenate at 15,500g for 5 minutes, the resulting solution was treated with HClO4, as indicated for the plasma. Specific chromatographic conditions had been developed for each analyte, the calibration curve being constructed for plasma and brain homogenate.

[3] = tested on: C6 cells (rat glioma) and BAEC cells (bovine aortic endothelial); test: In vitro inhibition of CHP-induced oxidative stress (DCF fluorescence); assay type: cell-based; details: 500 µM CHP, 4, 20, 100 and 500 µM compound, 30 minutes; depending on the concentrations and cell line
Procedure: The method used was essentially the one reported by Rüweler M. et al. ("Inhibition of peroxide-induced radical generation by plant polyphenols in C6 astroglioma cells" (2008) Toxicol in vitro 22, 1377-81), with a few minor modifications.
The cells were seeded in phenol-red free DMEM (Sigma Aldrich) into 96-well plates with 5% FBS and 20 mM HEPES at a density of 40,000 cells/well. After 48 hours, the medium was substituted by HBSS (Hanks' Balanced Salt Solution, Sigma) containing 10 µM of dihydro-2',7'-dichlorofluorescein diacetate (H2DCF-DA, Sigma Aldrich) and incubated in darkness for 30 minutes at 37 °C, in order to load the cells with fluorescent dye. H2DCF-DA was hydrolyzed enzymatically by the intracellular esterases to form non-fluorescent H2DCF, which was then rapidly oxidized to form 2',7'-dichlorofluorescein (DCF) being highly fluorescent in the presence of reactive species (RS). The intensity of DCF fluorescence is directly proportional to the amount of RS formed.
After carrying out two washes, the cells were exposed to 500 µM of CHP and various concentrations (4, 20, 100 and 500 µM) of the compounds of the invention for 30 minutes at 37 °C. Fluorescence was then measured, after cell washing, by a microplate reader at an excitation wavelength of 485 nm and an emission wavelength of 535 nm.
Six wells per plate per concentration of test composition (compound + CHP) and per control (HBSS without CHP) were measured and 12 wells were used as reference for CHP-induced stress. In addition, each 96-well plate contained 6 wells that received the highest concentration of the tested compounds without CHP, to investigate whether the compounds of the invention alone were able to induce cellular radical formation.
When using this assay, it should be borne in mind that DCF fluorescence is a generalized indicator of oxidative stress rather than of any particular reactive species, i.e. it is not a direct assay for H2O2 or other reactive species (Halliwell B, Whiteman M. (2004) "Measuring reactive species and oxidative damage in vivo and in cell culture: how should you do it and what do the results mean?" Br. J. Pharmacol. 142 231-255). Therefore, when an increase in DCF fluorescence induced by exposure of cells to CHP was measured, as was carried out in these assays, it was not possible to deduce which reactive species was responsible. Inhibition of CHP-induced fluorescence was evaluated by means of different concentrations of the compounds of the invention and comparative compounds such as Trolox and edaravone.

[4] = ip, overall, compared with its own vehicle
[5] = ip, overall, with respect to the vehicle
[6] = ip, % inhibition relative to change due to doxorubicin alone, vs its own, read-out: Brain/BWi its own
[7] = ip, % inhibition relative to change due to doxorubicin alone, vs its own, read-out: CAT/pr its own
[8] = ip, % inhibition relative to change due to doxorubicin alone, vs its own, read-out: GPX/pr its own
[9] = ip, % inhibition relative to change due to doxorubicin alone, vs its own, read-out: GSH/pr its own
[10] = ip, % inhibition relative to change due to doxorubicin alone, vs its own, read-out: GST/pr its own
[11] = ip, % inhibition relative to change due to doxorubicin alone, vs its own, read-out: Prot. Hmg its own
[12] = ip, % inhibition relative to change due to doxorubicin alone, vs its own, read-out: Prot. Ox/pr its own
[13] = ip, % inhibition relative to change due to doxorubicin alone, vs its own, read-out: SOD/pr its own
[14] = ip, % inhibition relative to change due to doxorubicin alone, vs vehicle, read-out: Brain/BWi vehicle
[15] = ip, % inhibition relative to change due to doxorubicin alone, vs vehicle, read-out: CAT/pr vehicle
[16] = ip, % inhibition relative to change due to doxorubicin alone, vs vehicle, read-out: GPX/pr vehicle
[17] = ip, % inhibition relative to change due to doxorubicin alone, vs vehicle, read-out: GSH/pr vehicle
[18] = ip, % inhibition relative to change due to doxorubicin alone, vs vehicle, read-out: GST/pr vehicle
[19] = ip, % inhibition relative to change due to doxorubicin alone, vs vehicle, read-out: Prot. Hmg vehicle
[20] = ip, % inhibition relative to change due to doxorubicin alone, vs vehicle, read-out: Prot. Ox/pr vehicle
[21] = ip, % inhibition relative to change due to doxorubicin alone, vs vehicle, read-out: SOD/pr vehicle
[22] = 50 mg/kg IP x3 days + doxorubicin, computed as a function of its own (healthy, compound only), read-out: mean % effect relative to doxorubicin alone, all parameters (Its own)
[23] = 50 mg/kg IP x3 days + doxorubicin

Row | SMILES | inhibition in vivo at 50 mg/kg [1, 4] [%] | inhibition in vivo at 50 mg/kg [1, 5] [%] | change in vivo at 50 mg/kg [1, 6] [%] | change in vivo at 50 mg/kg [1, 7] [%] | change in vivo at 50 mg/kg [1, 8] [%] | change in vivo at 50 mg/kg [1, 9] [%] | change in vivo at 50 mg/kg [1, 10] [%] | change in vivo at 50 mg/kg [1, 11] [%] | change in vivo at 50 mg/kg [1, 12] [%] | change in vivo at 50 mg/kg [1, 13] [%] | change in vivo at 50 mg/kg [1, 14] [%] | change in vivo at 50 mg/kg [1, 15] [%] | change in vivo at 50 mg/kg [1, 16] [%] | change in vivo at 50 mg/kg [1, 17] [%] | change in vivo at 50 mg/kg [1, 18] [%] | change in vivo at 50 mg/kg [1, 19] [%] | change in vivo at 50 mg/kg [1, 20] [%] | change in vivo at 50 mg/kg [1, 21] [%] | change in vivo at 50 mg/kg [1, 22] [%] | Kp [2] | other results
1 | O=c1oc2ccccc2c(O)c1C1COCCN1O (stereo not drawn) [(10), 4-hydroxy-3-(4-hydroxymorpholin-3-yl)-2H-chromen-2-one] | ~85 | ≥ 50 | -65.2 | -115 | -117 | -87.2 | -128 | -113 | -45.3 | -18.9 | -73.9 | -34.1 | -103 | -14.4 | -84.6 | -43.4 | -32.6 | 2.1 | -86.2 | > 0.1 | mean % effect relative to doxorubicin alone, all parameters (Vehicle) [1, 23]: -48.0%
2 | CC1(C)CC(=O)C(C2CCCCN2O)C(=O)C1 (stereo not drawn) [(3), 2-(1-hydroxypiperidin-2-yl)-5,5-dimethylcyclohexane-1,3-dione] |  | ≥ 50 | 7.2 | -87.1 | -108 | -11.2 | -50.5 | -125 | 195 | 30.8 | -53.6 | -23.5 | -91.9 | -49.6 | -110 | -114 | -45.9 | 86.7 | -76.6 | > 0.1 | inhibition of the doxorubicin effect ([1]; overall, compared with its own vehicle): at the level of edaravone; mean % effect relative to doxorubicin alone, all parameters (Vehicle) [1, 23]: -50.3%
3 | O=C1CCC(=O)C1C1COCCN1O (stereo not drawn) [(7), 2-(4-hydroxymorpholin-3-yl)-cyclopentane-1,3-dione] | ~85 |  | -85.5 | -45.5 | -30.3 | -138 | -29.7 | -48.2 | 20.3 | -23.8 | 21.7 | 2.3 | -23.2 | -60.8 | -22 | -14.5 | -22.1 | -25.9 | -85.5 | > 0.1 | 
4 | O=C1CC(c2ccccc2)CC(=O)C1C1COCCN1O (stereo not drawn) [(5), 2-(4-hydroxymorpholin-3-yl)-5-phenylcyclohexane-1,3-dione] | 45 to 50 |  | -128 | -24.2 | -14.1 | -40.8 | -27.5 | -42.2 | -43.6 | 3.5 | -49.3 | 7.6 | -7.1 | -21.6 | -8.8 | -12 | -15.7 | -4.2 | -47.5 | > 0.1 | 
5 | O=C1c2ccccc2C(=O)C1C1COCCN1O (stereo not drawn) [(8), 2-(4-hydroxymorpholin-3-yl)-2H-indene-1,3-dione] | 45 to 50 |  | -103 | -28.8 | -2 | -139 | -14.3 | -20.5 | -96.5 | -11.9 | 0 | 27.3 | 29.3 | -48 | 68.1 | 49.4 | -65.7 | 11.9 | -45.6 |  | Inhibition of CHP-induced fluorescence [3]: effective
